Measured values from ChEMBL document CHEMBL1125950, “Synthesis, siderophore, and antimicrobial evaluation of a spermidine-based tricatecholate siderophore and carbacephalosporin conjugate” (1991).

How the values were obtained:
Type in all cases: functional
Escherichia coli [1] = assay: Compound was evaluated for zone of stimulation of growth in Escherichia coli RWB18 at a concentration of 25 nM
Escherichia coli [2] = assay: Compound was evaluated for zone of stimulation of growth in Escherichia coli RW193 at concentration of 25 nM
Escherichia coli [3] = assay: Compound was evaluated for zone of stimulation of growth in Escherichia coli RW193 at concentration of 5 nM
Escherichia coli [4] = assay: Compound was evaluated for zone of stimulation of growth in Escherichia coli RWB18 at a concentration of 5 nM
Escherichia coli [5] = assay: Compound was evaluated for zone of stimulation of growth in Escherichia coli X580 at concentration of 25 nM
Escherichia coli [6] = assay: Compound was evaluated for zone of stimulation of growth in Escherichia coli X580 at concentration of 5 nM

| Compound | Zone of stimulation (Escherichia coli [1]) [mm] | Zone of stimulation (Escherichia coli [2]) [mm] | Zone of stimulation (Escherichia coli [3]) [mm] | Zone of stimulation (Escherichia coli [4]) [mm] | Zone of stimulation (Escherichia coli [5]) [mm] | Zone of stimulation (Escherichia coli [6]) [mm] |
| --- | --- | --- | --- | --- | --- | --- |
| O=C(O)CCC(=O)N(CCCCNC(=O)c1cccc(O)c1O)CCCNC(=O)c1cccc(O)c1O | 24 |  |  |  |  |  |
| O=C(CCC(=O)N(CCCCNC(=O)c1cccc(O)c1O)CCCNC(=O)c1cccc(O)c1O)NCCCC[C@H](NC(=O)c1cccc(O)c1O)C(=O)O (stereo in doubt) | 24 | 28 | 22 | 16 | 22 |  |
| O=C(CCC(=O)N(CCCCNC(=O)c1cccc(O)c1O)CCCNC(=O)c1cccc(O)c1O)NCCCC[C@H](NC(=O)c1cccc(O)c1O)C(=O)N[C@@H]1C(=O)N2C(C(=O)O)=C(Cl)CC[C@H]12 (stereo in doubt) | 20 |  | 12 | 12 | 12 |  |
| O=C(CCC(=O)N(CCCCNC(=O)c1cccc(O)c1O)CCCNC(=O)c1cccc(O)c1O)NCCCC[C@H](NC(=O)c1cccc(O)c1O)C(=O)O (stereo in doubt; 7) |  | 24 |  | 24 | 20 |  |
| O=C(CCC(=O)N(CCCCNC(=O)c1cccc(O)c1O)CCCNC(=O)c1cccc(O)c1O)NCCCC[C@H](NC(=O)c1cccc(O)c1O)C(=O)N[C@@H]1C(=O)N2C(C(=O)O)=C(Cl)CC[C@H]12 (stereo in doubt; 8) | 16 | 18 |  | 10 | 0 |  |
| O=C(N[C@H]1COC(=O)[C@@H](NC(=O)c2cccc(O)c2O)COC(=O)[C@@H](NC(=O)c2cccc(O)c2O)COC1=O)c1cccc(O)c1O (stereo in doubt; form 1) [ENTEROBACTIN] |  |  |  |  | 38 | 24 |
| O=C(N[C@H]1COC(=O)[C@@H](NC(=O)c2cccc(O)c2O)COC(=O)[C@@H](NC(=O)c2cccc(O)c2O)COC1=O)c1cccc(O)c1O (stereo in doubt; form 2) [ENTEROBACTIN] |  |  |  |  | 40 | 30 |
